Numbered stars: 1 amine (or outer) side, 2 acyl side, 3 side chain; on linkers, the order of the positions; unused ones are H or OH. Square brackets hold non-standard residues; d marks the D form. Peptide text beside a SMILES is read from it. * marks the point of attachment. X5 = NCCC(=O)N[C@@H]1C[C@@H](C(=O)[*:2])N([*:1])C1; X7 = N[C@@H]1CCN([*:1])[C@@H]1C(=O)[*:2]; Pro(4R-NH2) = N[C@H]1CN[C@H](C(=O)O)C1; dOrn(Me2) = CN(C)CCC[C@@H](N)C(=O)O; X2 = O=C([C@H]1CCCN([*:1])C1)[*:2]; Hyp = O=C(O)[C@@H]1C[C@@H](O)CN1; NMeF = CN[C@@H](Cc1ccccc1)C(=O)O; NHcycloheptyl = C1CCCC(N*)CC1; NMeL = CN[C@@H](CC(C)C)C(=O)O; dNle = CCCC[C@@H](N)C(=O)O; X6 = C[C@@H]1CCCC[C@H]1N*; Nle = CCCC[C@H](N)C(=O)O; Octanoyl = CCCCCCCC(=O)*; Thz = O=C(O)[C@@H]1CSCN1
Target: T1, NPR-B (Homo sapiens, UniProt P20594)
T1 construct: a functional assay using endogenously NPR-B expressing GTM-3 cells; endogenous in cells; host or cells: GTM-3 (human glaucoma trabecular meshwork cells)
T1 sequence (P20594 23-1047): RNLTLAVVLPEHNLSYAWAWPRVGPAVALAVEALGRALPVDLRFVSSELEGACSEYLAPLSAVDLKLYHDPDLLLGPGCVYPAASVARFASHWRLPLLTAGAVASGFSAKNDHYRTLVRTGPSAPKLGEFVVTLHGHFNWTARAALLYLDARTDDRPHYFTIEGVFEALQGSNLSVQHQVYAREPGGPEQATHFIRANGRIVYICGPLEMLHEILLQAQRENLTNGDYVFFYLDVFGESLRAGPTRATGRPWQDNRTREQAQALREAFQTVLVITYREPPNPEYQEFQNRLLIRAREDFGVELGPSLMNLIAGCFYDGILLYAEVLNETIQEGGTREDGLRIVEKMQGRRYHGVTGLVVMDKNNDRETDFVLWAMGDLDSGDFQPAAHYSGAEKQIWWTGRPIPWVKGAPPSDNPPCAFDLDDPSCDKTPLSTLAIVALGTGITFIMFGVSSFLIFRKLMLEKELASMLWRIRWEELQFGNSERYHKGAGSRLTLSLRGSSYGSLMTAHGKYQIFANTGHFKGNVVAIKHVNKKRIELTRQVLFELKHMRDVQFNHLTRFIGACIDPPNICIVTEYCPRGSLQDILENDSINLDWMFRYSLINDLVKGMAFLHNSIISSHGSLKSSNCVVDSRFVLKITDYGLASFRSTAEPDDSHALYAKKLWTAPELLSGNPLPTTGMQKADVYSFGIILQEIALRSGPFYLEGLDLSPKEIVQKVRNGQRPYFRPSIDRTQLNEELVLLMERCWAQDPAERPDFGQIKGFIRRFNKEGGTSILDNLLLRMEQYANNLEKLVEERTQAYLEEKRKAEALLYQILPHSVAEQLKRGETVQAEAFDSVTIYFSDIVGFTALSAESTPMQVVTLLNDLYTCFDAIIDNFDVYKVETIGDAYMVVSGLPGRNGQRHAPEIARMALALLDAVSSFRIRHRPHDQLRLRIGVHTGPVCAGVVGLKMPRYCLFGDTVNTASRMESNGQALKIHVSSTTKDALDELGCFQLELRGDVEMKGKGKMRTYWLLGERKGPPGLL
Experiment: NPR-B induced production of cyclic GMP in human glaucoma trabecular meshwork cells (GTM-3)
Assay type: cell-based
Conditions: group by EC50 and Emax (CNP = 100%); Table 4; read-out: Activity (group), NPR-B activation assayed with GTM-3 cells

Compound	EC50 [nM]
CCCCCCCC(=O)N[C@H](C)C(=O)N[C@@H](Cc1ccccc1)C(=O)N[C@H](CCCNC(=N)N)C(=O)N[C@@H](CC(C)C)C(=O)N1C[C@H](O)C[C@H]1C(=O)N(C)C(CC(C)(C)C)C(=O)N[C@@H](CC(=O)O)C(=O)N[C@@H](CCCNC(=N)N)C(=O)N[C@H](C(N)=O)[C@@H](C)CC (stereo partly drawn) [JAL-1284, Occ-ala-Phe-arg-Leu-Hyp-(SH-158)-Asp-Arg-Ile-NH2] (HELM PEPTIDE1{[CCCCCCCC(=O)[*:2]].[dA].F.[dR].L.[Hyp].[CN(C(CC(C)(C)C)C(=O)[*:2])[*:1]].D.R.I.[am]}$$$$V2.0)	< 1000
CCCCCCCC(=O)N1CCC[C@H](C(=O)N[C@@H](Cc2ccccc2)C(=O)N[C@H](CC(C)C)C(=O)N[C@@H](CC(C)C)C(=O)N2C[C@H](O)C[C@H]2C(=O)N(C)[C@@H](CC(C)C)C(=O)N[C@H](C(=O)N[C@@H](CCCNC(=N)N)C(=O)N[C@H](C(N)=O)[C@@H](C)CC)[C@@H](C)O)C1 [JAL-1932, Occ-Sni-Phe-leu-Leu-Hyp-Nml-Thr-Arg-Ile-NH2] (HELM PEPTIDE1{[CCCCCCCC(=O)[*:2]].[O=C([C@H]1CCCN([*:1])C1)[*:2]].F.[dL].L.[Hyp].[meL].T.R.I.[am]}$$$$V2.0)	< 1000
CCCCCCCCN1CCC[C@H](C(=O)N[C@@H](Cc2ccccc2)C(=O)N[C@H](CCCNC(=N)N)C(=O)N[C@@H](CC(C)C)C(=O)N2C[C@H](O)C[C@H]2C(=O)N(C)[C@@H](CC(C)C)C(=O)N[C@@H](CC(=O)O)C(=O)N[C@@H](CCCNC(=N)N)C(=O)N[C@H](C(N)=O)[C@@H](C)CC)C1 [JAL-1297, Oct-Sni-Phe-arg-Leu-Hyp-Nml-Asp-Arg-Ile-NH2] (HELM PEPTIDE1{[CCCCCCCCN1CCC[C@H](C(=O)[*:2])C1].F.[dR].L.[Hyp].[meL].D.R.I.[am]}$$$$V2.0)	< 1000
CCCCCCCC(=O)N[C@H](C)C(=O)N[C@@H](Cc1ccccc1)C(=O)N[C@H](CC(C)C)C(=O)N[C@@H](CC(C)C)C(=O)N1C[C@H](O)C[C@H]1C(=O)N(C)C(CC(C)(C)C)C(=O)N[C@@H](CC(=O)O)C(=O)N[C@@H](CCCNC(=N)N)C(=O)N[C@H](C(N)=O)[C@@H](C)CC (stereo partly drawn) [JAL-1283, Occ-ala-Phe-leu-Leu-Hyp-(SH-158)-Asp-Arg-Ile-NH2] (HELM PEPTIDE1{[CCCCCCCC(=O)[*:2]].[dA].F.[dL].L.[Hyp].[CN(C(CC(C)(C)C)C(=O)[*:2])[*:1]].D.R.I.[am]}$$$$V2.0)	< 1000
CCCCCCCC(=O)N[C@H](C)C(=O)N[C@@H](Cc1ccc(Cl)cc1)C(=O)N[C@H](CC(C)C)C(=O)N[C@@H](CC(C)C)C(=O)N1C[C@H](O)C[C@H]1C(=O)N[C@@H](CC(C)C)C(=O)N[C@@H](CC(=O)O)C(=O)N[C@@H](CCCNC(=N)N)C(=O)N[C@H](C(N)=O)[C@@H](C)CC [JAL-1050, Occ-ala-Pcf-leu-Leu-Hyp-Leu-Asp-Arg-Ile-NH2] (HELM PEPTIDE1{[CCCCCCCC(=O)[*:2]].[dA].[O=C([C@H](Cc1ccc(Cl)cc1)N[*:1])[*:2]].[dL].L.[Hyp].L.D.R.I.[am]}$$$$V2.0)	< 1000
CCCCCCCC(=O)N1CCC[C@H](C(=O)N[C@@H](Cc2ccccc2)C(=O)N[C@H](CC(C)C)C(=O)N[C@@H](CC(C)C)C(=O)N2C[C@H](NC(=O)CCN)C[C@H]2C(=O)N(C)[C@@H](CC(C)C)C(=O)N[C@@H](CC(=O)O)C(=O)N[C@@H](CCCNC(=N)N)C(=O)N[C@H](C(N)=O)[C@@H](C)CC)C1 [JAL-1323, Occ-Sni-Phe-leu-Leu-Tap(Bal)-Nml-Asp-Arg-Ile-NH2] (Octanoyl-[X2]F[dL]L[X5][NMeL]DRI-NH2)	< 1000
CCCCCCCC(=O)N1CCC[C@H](C(=O)N[C@@H](Cc2ccccc2)C(=O)N[C@H](CC(C)C)C(=O)N[C@@H](CC(C)C)C(=O)N2C[C@H](O)C[C@H]2C(=O)N(C)[C@@H](CC(C)C)C(=O)N[C@@H](CC(=O)O)C(=O)N2CSC[C@H]2C(=O)NC2CCCCCC2)C1 [JAL-1638, Occ-Sni-Phe-leu-Leu-Hyp-Nml-Asp-Eaz-Che] (Octanoyl-[X2]F[dL]L[Hyp][NMeL]D[Thz]-NHcycloheptyl)	< 1000

Other lines, results leading:

EC50 [nM]	Compound
< 1000	CCCCCCCC(=O)OC(C)C(=O)N[C@@H](Cc1ccccc1)C(=O)N[C@H](CC(C)C)C(=O)N[C@@H](CC(C)C)C(=O)N1C[C@H](O)C[C@H]1C(=O)N(C)[C@@H](CC(C)C)C(=O)N[C@@H](CC(=O)O)C(=O)N[C@@H](CCCNC(=N)N)C(=O)N[C@H](C(N)=O)[C@@H](C)CC (stereo partly drawn) [JAL-1294, (AR-201-49)-Phe-leu-Leu-Hyp-Nml-Asp-Arg-Ile-NH2] (HELM PEPTIDE1{[CCCCCCCC(=O)[*:2]].[CC(O[*:1])C(=O)[*:2]].F.[dL].L.[Hyp].[meL].D.R.I.[am]}$$$$V2.0)
< 1000	CCCCCCCC(=O)N1CCC[C@H](C(=O)N(C)[C@@H](Cc2ccccc2)C(=O)N[C@H](CC(C)C)C(=O)N[C@@H](CC(C)C)C(=O)N2C[C@H](O)C[C@H]2C(=O)N(C)[C@@H](CC(C)C)C(=O)N[C@@H](CC(=O)O)C(=O)N2CCC[C@H]2C(=O)NC2CCCCCC2)C1 [JAL-1597, Occ-Sni-Nmf-leu-Leu-Hyp-Nml-Asp-Pro-Che] (Octanoyl-[X2][NMeF][dL]L[Hyp][NMeL]DP-NHcycloheptyl)
< 1000	CCCCCCCC(=O)N1CCC[C@H](C(=O)N[C@@H](Cc2ccccc2)C(=O)N[C@H](CC(C)C)C(=O)N[C@@H](CC(C)C)C(=O)N2C[C@H](O)C[C@H]2C(=O)N(C)[C@@H](CC(C)C)C(=O)N[C@@H](CC(=O)O)C(=O)N2CCC[C@H]2C(=O)N[C@@H]2CCCC[C@H]2C)C1 [JAL-1510, Occ-Sni-Phe-leu-Leu-Hyp-Nml-Asp-Pro-1860] (Octanoyl-[X2]F[dL]L[Hyp][NMeL]DP-X6)
< 1000	CCCCCCCC(=O)N1CCC[C@H](C(=O)N[C@@H](Cc2ccccc2)C(=O)N[C@H](CCCC)C(=O)N[C@@H](CC(C)C)C(=O)N2C[C@H](O)C[C@H]2C(=O)N[C@@H](CC(C)C)C(=O)N[C@@H](CC(=O)O)C(=O)N[C@@H](CCCNC(=N)N)C(=O)N[C@H](C(N)=O)[C@@H](C)CC)C1 [JAL-1024, Occ-Sni-Phe-nle-Leu-Hyp-Leu-Asp-Arg-Ile-NH2] (Octanoyl-[X2]F[dNle]L[Hyp]LDRI-NH2)
< 1000	CCCCCCCC(=O)N1CCC[C@H](C(=O)N[C@@H](Cc2ccccc2)C(=O)N[C@H](CC(C)C)C(=O)N[C@@H](CC(C)C)C(=O)N2C[C@H](O)C[C@H]2C(=O)N(C)[C@@H](CC(C)C)C(=O)N[C@@H](CC(=O)O)C(=O)N2CC[C@@H](N)[C@H]2C(=O)NC2CCCCCC2)C1 [JAL-1679, Occ-Sni-Phe-leu-Leu-Hyp-Nml-Asp-Pca-Che] (Octanoyl-[X2]F[dL]L[Hyp][NMeL]D[X7]-NHcycloheptyl)
< 1000	CCCCCCCCN1CCC[C@H](C(=O)N[C@@H](Cc2ccccc2)C(=O)N[C@H](CC(C)C)C(=O)N[C@@H](CC(C)C)C(=O)N2C[C@H](O)C[C@H]2C(=O)N(C)[C@@H](CC(C)C)C(=O)N[C@@H](CC(=O)O)C(=O)N[C@@H](CCCNC(=N)N)C(=O)N[C@H](C(N)=O)[C@@H](C)CC)C1 [JAL-1302, Oct-Sni-Phe-leu-Leu-Hyp-Nml-Asp-Arg-Ile-NH2] (HELM PEPTIDE1{[CCCCCCCCN1CCC[C@H](C(=O)[*:2])C1].F.[dL].L.[Hyp].[meL].D.R.I.[am]}$$$$V2.0)
< 1000	CCCCCCCC(=O)N1CCC[C@H](C(=O)N[C@@H](Cc2ccccc2)C(=O)N[C@H](CCCN(C)C)C(=O)N[C@@H](CC(C)C)C(=O)N2C[C@H](N)C[C@H]2C(=O)N(C)[C@@H](CC(C)C)C(=O)N[C@@H](CC(=O)O)C(=O)N[C@@H](CCCNC(=N)N)C(=O)N[C@H](C(N)=O)[C@@H](C)CC)C1 [JAL-1936, Occ-Sni-Phe-orn(Me2)-Leu-Tap-Nml-Asp-Arg-Ile-NH2] (Octanoyl-[X2]F[dOrn(Me2)]L[Pro(4R-NH2)][NMeL]DRI-NH2)
< 1000	CCCCCCCC(=O)N1CCC[C@H](C(=O)N[C@@H](Cc2ccccc2)C(=O)N[C@H](CC(C)C)C(=O)N[C@@H](CC(C)C)C(=O)N2CCC[C@H]2C(=O)N(C)[C@@H](CC(C)C)C(=O)N[C@@H](CC(=O)O)C(=O)N[C@@H](CCCNC(=N)N)C(=O)N[C@H](C(N)=O)[C@@H](C)CC)C1 [JAL-1040, Occ-Sni-Phe-leu-Leu-Pro-Nml-Asp-Arg-Ile-NH2] (HELM PEPTIDE1{[CCCCCCCC(=O)[*:2]].[O=C([C@H]1CCCN([*:1])C1)[*:2]].F.[dL].L.P.[meL].D.R.I.[am]}$$$$V2.0)
< 1000	CCCCCCCC(=O)N1CCC[C@H](C(=O)N[C@@H](Cc2ccccc2)C(=O)N[C@H](CC(C)C)C(=O)N[C@@H](CCCC)C(=O)N2C[C@H](O)C[C@H]2C(=O)N(C)[C@@H](CC(C)C)C(=O)N[C@@H](CC(=O)O)C(=O)N2CCC[C@H]2C(=O)NC2CCCCCC2)C1 [JAL-1657, Occ-Sni-Phe-leu-Nle-Hyp-Nml-Asp-Pro-Che] (Octanoyl-[X2]F[dL][Nle][Hyp][NMeL]DP-NHcycloheptyl)

Reference: patent US9822147B2, “Methods of treating ophthalmic diseases using NPR-B agonists” (priority 2009, dated 2017)
